Assay results taken from patent US20230174636A1, “COMPOSITIONS AND METHODS FOR TREATING CANCER” (RUSH UNIVERSITY MEDICAL CENTER, priority 2020, published 2023).
Where no end group is shown, it is not given here. [ ]: non-standard residue; d: D form.

Tests used:
BT-549 cells = assay: MTT assay (cell viability), BT-549; type: cell-based, human; details: BT-549, 48 h, serum-free, combined with mAb a3-3a
Method: (§1) MTT assay: Mitochondrial activity was measured with the 3-(4, 5-dimethylthiazol-2-yl)-2, 5-diphenyltetrazolium bromide (MTT) assay (Sigma) as described before. The cells were grown on 24-well culture plates with 500 μl of medium and treated with various reagents according to the experimental design. At the end of the treatment period, 300 μl of culture medium were removed from each well, and 20 μl of MTT solution (5 mg/ml) were added and incubated for 1 h.

TNBC tumor [1] = assay: Tumor size in PDX mouse model of TNBC; type: in vivo, mice; details: for shrinkage of TNBC tumor in mAb a3-3a-treated mice / tumor shrinkage in mAb a3-3a-treated TNBC mice: peptide 0.1 mg/kg daily intranasal plus a3-3a 2 mg/kg weekly i.p.; for shrinkage of TNBC tumor in mAb a3-3a-treated mice: 3 weeks; for tumor shrinkage in mAb a3-3a-treated TNBC mice: three weeks; for p40 mAb a3-3a-mediated reduction of TNBC tumor: peptide 0.1 mg/kg daily intranasal plus p40 mAb 2 mg/kg weekly, 2 weeks, infrared imaging
Description: Animals: Animal maintaining and experiments were in accordance with National Institute of Health guidelines and were approved by the Institutional Animal Care and Use committee of the Rush University of Medical Center, Chicago, Ill. Patient-derived xenograft (PDX) model (ID # TM00096) was purchased from Jackson Laboratory, Bar Harbor, Me., USA. In this model, TNBC tumor fragments at passage P1-P9 (invasive ductal carcinoma; TNBC ER^−PR^−HER2^−) were engrafted in the flank of female 6-8 week old NOD scid gamma (NSG) mice. Mice were shipped to us by Jackson Laboratory within ˜2 weeks following tumor engraftment. PDX mice were maintained in our temperature-controlled animal vivarium with adequate food and water.
Tumor measurement: Tumor growth was measured with a caliper and tumor cross-sectional area was determined with the formula (mm^2=longest diameter X shortest diameter). Treatment with p40 mAb started when the tumor sizes reached 0.6-0.8 cm^2 in area. The p40 mAb a3-3a was injected once a week intraperitoneally in 0.1 ml volume of sterile PBS-1% normal mouse serum. The tumors were then measured to determine progression or regression. Infrared dye (Alexa 800-conjugated 2DG dye; Licor) was injected via tail-vein on the day before imaging analysis. Mice were sacrificed at the end of the study and tumor tissues were collected for different biochemical analyses.

splenocytes = assay: FACS of T cells in splenocytes of PDX mice; type: in vivo; details: intranasal peptide plus p40 mAb, 3 weeks
Method: Isolation of splenocytes: Spleens isolated from treated or untreated PDX mice were placed into a cell strainer and mashed with a syringe plunger. Resulting single-cell suspensions were treated with RBC lysis buffer (Sigma-Aldrich), washed, and cultured in RPMI 1640 supplemented with 10% FBS, 50 μM 2-ME, 2 mM L-glutamine, 100 U/ml penicillin, and 100 μg/ml streptomycin.
Flow cytometry: Single-cell suspensions isolated from mouse spleen or tumor were stained with Zombie Aqua™ Fixable Viability Kit (Biolegend) according to the manufacturer's instructions. Cells were washed with FACS buffer (ThermoFisher) and stained with FITC-anti-human CD4 antibody and APC/Cy7-anti-human CD8 antibody (Biolegend) for extracellular stains. For IFNγ staining, cells were stained with PE-anti-human IFNγ antibody (Biolegend) and detected by flow cytometry analysis. Only PE-treated and unstained cells served as control. Flow cytometric analyses were performed using the LSRFortessa analyzer (BD Biosciences) and analyzed using the FlowJo Software (v10) as described.

[2] = tested on: Hep3B (human liver cancer cells); assay: MTT assay (cell viability), Hep3B; type: cell-based; details: 48 h, serum-free, combined with mAb a3-3a
Method: as §1

MCF-7 cells = assay: MTT assay (cell viability), MCF-7; type: cell-based, human; details: MCF-7, 48 h, serum-free, combined with mAb a3-3a
Method: as §1

TNBC tumor [3] = assay: H&E staining of tumor sections of PDX mice; type: in vivo; details: peptide 0.1 mg/kg daily intranasal plus p40 mAb 2 mg/kg weekly, 2 weeks
IFNγ, IL-10 = assay: Serum IFNγ and IL-10 by sandwich ELISA in PDX mice; type: in vivo; details: peptide 0.1 mg/kg daily intranasal plus p40 mAb, 2 weeks
Method: (§2) Sandwich ELISA: Sandwich ELISA was used to quantify p402 and p40 as described by us. Briefly, for p402, mAb a3-1d (1.3 mg/mL) was diluted 1:3000 and added to each well (100 μL/well) of a 96-well ELISA plate for coating. The biotinylated p402 mAb d7-12c (2 mg/mL) was diluted 1:3000 and used as detection antibody. Similarly for p40, mAb a3-3a (1.3 mg/mL) and biotinylated p40 mAb a3-7g (2 mg/mL) were also diluted 1:3000 and used as coating and detection antibodies, respectively. Concentrations of IFN-γ, IL-12, IL-23, and IL-10 were measured in serum or tissue homogenates by ELISA (eBioscience/ThermoFisher), according to the manufacturer's instructions as described before.

human IFNγ, human IL-10 = assay: IFNγ and IL-10 in tumor tissue extracts by sandwich ELISA; type: in vivo, mice; details: peptide 0.1 mg/kg daily intranasal plus p40 mAb, 2 weeks
Method: FIG. 23A-23B. Intranasal wtTIDM peptide stimulates the p40 mAb-mediated induction of IFNγ while reducing the level of IL-10 in TNBC tumor tissues of patient-derived xenograft (PDX) mice. Female 6-8 week old NOD scid gamma (NSG) mice were engrafted TNBC tumor fragments at passage P1-P9 (invasive ductal carcinoma; TNBC ER^−/−/PR^−/−/HER2^−/−) in the flank. After about 4 weeks of engraftment, when tumors of PDX mice were 0.6-0.8 cm^2 in size, mice were treated with p40 mAb and hamster IgG at a dose of 2 mg/kg body wt once a week. Mice were also treated with wild type (wt) and mutated (m) TLR2-interacting domain of MyD88 (TIDM) peptide at a dose of 0.1 mg/kg body wt daily via intranasal route. After 2 weeks of treatment, levels of human IFNγ (23A) and human IL-10 (23B) were measured in tumor tissue extracts by sandwich ELISA (Thermofisher). Results are mean±SEM of 6-7 mice per group. ***p<0.001.
as §2

Substance | death induced by p40 mAb a3-3a in presence of NBD peptide (MTT) (BT-549 cells) | shrinkage of TNBC tumor in mAb a3-3a-treated mice (TNBC tumor [1]) | Tc1 (CD8+IFNγ+) response in p40 mAb-treated TNBC mice (splenocytes) | death induced by p40 mAb a3-3a in presence of NBD peptide (MTT) [2] | death induced by p40 mAb a3-3a in presence of NBD peptide (MTT) (MCF-7 cells) | death by combination of mAb a3-3a and TIDM peptide (MTT) (BT-549 cells) | tumor shrinkage in mAb a3-3a-treated TNBC mice (TNBC tumor [1]) | p40 mAb a3-3a-mediated reduction of TNBC tumor (TNBC tumor [1]) | death of TNBC tumor in p40 mAb a3-3a-treated mice (H&E) (TNBC tumor [3]) | p40 mAb a3-3a-mediated induction of IFNγ in serum (IFNγ, IL-10) | p40 mAb a3-3a-mediated reduction of IL-10 in serum (IFNγ, IL-10) | death by combination of mAb a3-3a and TIDM peptide (MTT) [2] | death by combination of mAb a3-3a and TIDM peptide (MTT) (MCF-7 cells) | p40 mAb a3-3a-mediated induction of IFNγ in tumor tissues (human IFNγ, human IL-10) | p40 mAb a3-3a-mediated reduction of IL-10 in tumor tissues (human IFNγ, human IL-10)
NEMO-binding domain (NBD) peptide [wtNBD] | greater death | greater shrinkage | markedly stimulated | greater death | greater death |  |  |  |  |  |  |  |  |  | 
TLR2-interacting domain of MyD88 (TIDM) peptide (DRQIKIWFQNRRMKWKKPGAHQK; not fully specified (some residues)) [wtTIDM] |  |  | markedly stimulated |  |  | markedly induced death | greater tumor shrinkage | significantly stimulated | stimulated the death | stimulated | potentiated | markedly induced death | markedly induced death | stimulated | potentiated
mNBD: Mutated (m) NBD control peptide, drqikiwfqnrrmkwkkLDASAL (SEQ ID NO: 9) ([dD][dR][dQ][dI][dK][dI][dW][dF][dQ][dN][dR][dR][dM][dK][dW][dK][dK]LDASAL) [reference compound] | not seen | did not exhibit such effect |  | not seen | not seen |  |  |  |  |  |  |  |  |  | 
mTIDM: Mutated (m) TIDM control peptide, drqikiwfqnrmikwkkPGWHGD (SEQ ID NO.: 5) ([dD][dR][dQ][dI][dK][dI][dW][dF][dQ][dN][dR][dM][dI][dK][dW][dK][dK]PGWHGD) [reference compound] |  |  |  |  |  | not | not | remained unable to stimulate | not | not | not | not | not | not | not
